We go through 7 molecules from US12589156B2, “Benzimidazole and benzimidazolone based protac compounds for the targeted degradation of leucine rich repeat kinase 2 (LRRK2)” (Arvinas Operations, Inc., priority 2023, dated 2026).

The test concerns the target T1, WT LRRK2 (Homo sapiens, UniProt Q5S007).
T1 construct: endogenous in cells; host or cells: HEK293 (endogenous LRRK2 gene knock-in tagged with HiBit; stably expressing CMV-driven firefly luciferase)
The experiment in a line: LRRK2 HiBit degradation assay (Nano-Glo Dual Luciferase) in HEK293 cells with HiBit-tagged endogenous LRRK2. Type of test: cell-based. The method, boiled down: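 HEK293 cells carrying endogenous C-terminally HiBit-tagged LRRK2 and stably expressing CMV-driven firefly luciferase were treated for 24 h at 37° C with an 11-point 1:3 series from a 1 μM final top concentration. Nano-Glo Dual Luciferase read LRRK2-HiBit against firefly signal. Alamar Blue gave viability, and signals were normalized to DMSO median before curve fitting.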

Setting [1] is: HEK293, Table 2, maximal degradation, HiBit-tagged LRRK2 in HEK293 cells, 24 hours treatment.
[2] abbreviates: HEK293, Table 3, comparison with direct comparators, maximal degradation.
Where [3] appears, read: Table 2, HiBit-tagged LRRK2 in HEK293 cells, 24 hours treatment, starting concentration 1 μM.
The mark [4] stands for this setting: Table 3, comparison with direct comparators, HiBit-tagged LRRK2 in HEK293 cells, 24 hours treatment.
Where [5] appears, read: Table 2, maximal degradation, HiBit-tagged LRRK2 in HEK293 cells, 24 hours treatment.

SMILES strings stand for the structures.

T1 sequence (Q5S007 whole entry): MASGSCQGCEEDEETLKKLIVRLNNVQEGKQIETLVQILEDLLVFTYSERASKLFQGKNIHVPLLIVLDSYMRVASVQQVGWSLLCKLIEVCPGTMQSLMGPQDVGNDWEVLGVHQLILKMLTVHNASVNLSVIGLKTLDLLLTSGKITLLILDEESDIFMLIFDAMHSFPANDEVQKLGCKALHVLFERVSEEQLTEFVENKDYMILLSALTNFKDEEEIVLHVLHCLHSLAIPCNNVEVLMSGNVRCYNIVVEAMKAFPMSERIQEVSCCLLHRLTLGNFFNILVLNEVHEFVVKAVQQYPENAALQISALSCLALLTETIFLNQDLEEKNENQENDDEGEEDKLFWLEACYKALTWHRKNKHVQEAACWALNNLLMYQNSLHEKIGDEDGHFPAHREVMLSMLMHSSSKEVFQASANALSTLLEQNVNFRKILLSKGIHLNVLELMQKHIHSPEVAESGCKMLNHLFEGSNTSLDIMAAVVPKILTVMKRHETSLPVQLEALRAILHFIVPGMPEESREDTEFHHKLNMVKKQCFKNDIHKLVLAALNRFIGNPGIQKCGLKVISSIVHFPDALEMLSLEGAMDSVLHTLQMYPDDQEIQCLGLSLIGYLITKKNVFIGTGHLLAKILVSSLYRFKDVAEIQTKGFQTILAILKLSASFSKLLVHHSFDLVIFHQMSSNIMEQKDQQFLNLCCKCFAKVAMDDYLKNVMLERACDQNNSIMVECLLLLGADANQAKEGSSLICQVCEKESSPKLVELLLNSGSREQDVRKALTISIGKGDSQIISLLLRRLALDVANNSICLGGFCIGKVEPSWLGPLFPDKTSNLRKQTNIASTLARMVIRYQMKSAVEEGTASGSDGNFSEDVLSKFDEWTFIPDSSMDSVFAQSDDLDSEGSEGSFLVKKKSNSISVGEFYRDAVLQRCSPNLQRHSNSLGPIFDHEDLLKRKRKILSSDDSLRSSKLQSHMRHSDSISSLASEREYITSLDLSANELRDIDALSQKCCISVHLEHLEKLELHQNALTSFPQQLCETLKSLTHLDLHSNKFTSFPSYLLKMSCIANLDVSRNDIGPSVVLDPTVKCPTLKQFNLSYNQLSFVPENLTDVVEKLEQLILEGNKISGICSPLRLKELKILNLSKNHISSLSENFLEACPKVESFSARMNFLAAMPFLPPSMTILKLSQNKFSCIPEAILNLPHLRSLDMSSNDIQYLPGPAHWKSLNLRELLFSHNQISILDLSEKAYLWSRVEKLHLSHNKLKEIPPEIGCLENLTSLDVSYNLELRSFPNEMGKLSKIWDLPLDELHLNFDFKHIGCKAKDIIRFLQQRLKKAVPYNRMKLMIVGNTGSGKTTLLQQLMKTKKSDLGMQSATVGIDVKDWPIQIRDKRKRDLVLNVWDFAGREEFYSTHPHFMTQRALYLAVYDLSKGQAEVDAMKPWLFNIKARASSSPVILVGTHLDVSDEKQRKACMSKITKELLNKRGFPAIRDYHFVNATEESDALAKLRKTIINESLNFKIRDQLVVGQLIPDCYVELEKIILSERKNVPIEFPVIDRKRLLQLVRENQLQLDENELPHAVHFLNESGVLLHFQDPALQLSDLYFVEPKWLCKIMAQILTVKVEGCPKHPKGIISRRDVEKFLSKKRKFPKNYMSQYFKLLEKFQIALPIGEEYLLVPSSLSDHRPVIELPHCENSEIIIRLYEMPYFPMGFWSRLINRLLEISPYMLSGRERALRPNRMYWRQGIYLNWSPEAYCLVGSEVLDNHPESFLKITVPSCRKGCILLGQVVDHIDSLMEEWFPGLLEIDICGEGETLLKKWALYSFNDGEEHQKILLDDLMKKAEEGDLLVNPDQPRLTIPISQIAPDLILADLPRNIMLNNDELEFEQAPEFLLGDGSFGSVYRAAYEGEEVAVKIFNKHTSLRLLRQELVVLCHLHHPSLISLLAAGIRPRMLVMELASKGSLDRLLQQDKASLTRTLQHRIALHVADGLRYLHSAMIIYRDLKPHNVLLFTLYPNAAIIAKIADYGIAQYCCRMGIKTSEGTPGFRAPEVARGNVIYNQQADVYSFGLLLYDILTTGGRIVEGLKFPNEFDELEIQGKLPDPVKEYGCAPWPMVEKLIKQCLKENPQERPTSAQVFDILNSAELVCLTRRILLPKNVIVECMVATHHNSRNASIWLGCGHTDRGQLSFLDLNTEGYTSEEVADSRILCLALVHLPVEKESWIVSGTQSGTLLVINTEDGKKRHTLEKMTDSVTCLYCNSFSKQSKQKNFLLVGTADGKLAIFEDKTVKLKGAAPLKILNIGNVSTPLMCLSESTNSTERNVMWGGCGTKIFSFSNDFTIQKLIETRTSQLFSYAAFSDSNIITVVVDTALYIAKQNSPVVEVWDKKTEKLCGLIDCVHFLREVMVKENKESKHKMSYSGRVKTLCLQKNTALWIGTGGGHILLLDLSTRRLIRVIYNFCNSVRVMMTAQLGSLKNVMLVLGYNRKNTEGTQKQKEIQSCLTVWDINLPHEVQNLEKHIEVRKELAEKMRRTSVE

As to `CC1(Oc2ccc3[nH]nc(-c4cc(N5CCC(CN6CCN(CC7CCN(c8cc(F)c9c(c8)ncn9C8CCC(=O)NC8=O)CC7)CC6(C)C)CC5)ncn4)c3c2)CC1` (centres unmarked) [Compound 39, 3-{5-[4-({3,3-dimethyl-4-[(1-{6-[5-(1-methylcyclopropoxy)-1H-indazol-3-yl]pyrimidin-4-yl}piperidin-4-yl)methyl]piperazin-1-yl}methyl)piperidin-1-yl]-7-fluoro-1H-1,3-benzodiazol-1-yl}piperidine-2,6-dione], the Dmax by setting is: under setting [1], 56%; under setting [2], 56%. The half-maximal degradation concentration (DC50) amounted to 4.9 nM under setting [3] and 4.9 nM under setting [4].
Take `Cn1c(=O)n(C2CCC(=O)NC2=O)c2cc(N3CCC(OC4CCC(CN5CCN(c6cc(-c7n[nH]c8ccc(OC9(C)CC9)cc78)ncn6)CC5)CC4)CC3)ccc21` (centres unmarked) [Compound 5, 3-[3-methyl-2-oxo-6-(4-{[(1r,4r)-4-[(4-{6-[5-(1-methylcyclopropoxy)-1H-indazol-3-yl]pyrimidin-4-yl}piperazin-1-yl)methyl]cyclohexyl]oxy}piperidin-1-yl)-2,3-dihydro-1H-1,3-benzodiazol-1-yl]piperidine-2,6-dione]: the DC50 under setting [3] is no less than 1000 nM.
With `Cn1c(=O)n(C2CCC(=O)NC2=O)c2cccc(N3CCC(O[C@H]4CC[C@H](CN5CCN(c6cc(-c7n[nH]c8cnc(OC9(C)CC9)cc78)ncn6)CC5)CC4)CC3)c21` (single isomer, unassigned) [Compound 46, rel-3-[3-methyl-2-oxo-4-(4-{[(1r,4r)-4-[(4-{6-[5-(1-methylcyclopropoxy)-1H-pyrazolo[3,4-c]pyridin-3-yl]pyrimidin-4-yl}piperazin-1-yl)methyl]cyclohexyl]oxy}piperidin-1-yl)-2,3-dihydro-1H-1,3-benzodiazol-1-yl]piperidine-2,6-dione], the Dmax under setting [1] was 90%. Further, the DC50 under setting [3] was determined as 2.1 nM.
Under setting [3], `Cn1c(=O)n(C2CCC(=O)NC2=O)c2ccc(N3CCC(O[C@H]4C[C@H](OC5CCN(c6cc(-c7n[nH]c8ccc(OC9(C)CC9)cc78)ncn6)CC5)C4)CC3)cc21` (single isomer, unassigned) [Compound 29, rel-3-(3-methyl-2-oxo-5-{4-[(1r,3r)-3-[(1-{6-[5-(1-methylcyclopropoxy)-1H-indazol-3-yl]pyrimidin-4-yl}piperidin-4-yl)oxy]cyclobutoxy]piperidin-1-yl}-2,3-dihydro-1H-1,3-benzodiazol-1-yl)piperidine-2,6-dione] gave a DC50 of 0.16 nM. In addition, the Dmax under setting [5] was found to be 54%.
Under setting [3], `CC(C)Oc1cc2c(-c3cc(N4CCC(OC5CCC(OC6CCN(c7ccc8c(c7)n(C)c(=O)n8C7CCC(=O)NC7=O)CC6)CC5)CC4)ncn3)n[nH]c2cn1` (centres unmarked) [Compound 28] displayed a DC50 of 17 nM. Also, the “WT LRRK2 **Dmax (%)” value under setting [5] amounted to 60%.
Molecule `Cn1c(=O)n(C2CCC(=O)NC2=O)c2ccc(N3CCN(C[C@H]4C[C@H](OC5CCN(c6cc(-c7n[nH]c8cnc(OC9(C)CC9)cc78)ncn6)CC5)C4)CC3)cc21` (single isomer, unassigned) [Compound 36, rel-3-[3-methyl-2-oxo-5-(4-{[(1r,3r)-3-[(1-{6-[5-(1-methylcyclopropoxy)-1H-pyrazolo[3,4-c]pyridin-3-yl]pyrimidin-4-yl}piperidin-4-yl)oxy]cyclobutyl]methyl}piperazin-1-yl)-2,3-dihydro-1H-1,3-benzodiazol-1-yl]piperidine-2,6-dione] came in with a DC50 under setting [3] of 0.079 nM. Moreover, under setting [5], the Dmax was 60%.
Consider `CC1(Oc2ccc3[nH]nc(-c4cc(N5CCC(CN6CCN(CC7CCN(c8ccc9c(c8)ncn9C8CCC(=O)NC8=O)CC7)CC6)CC5)ncn4)c3c2)CC1` (centres unmarked) [Compound 11, 3-{5-[4-({4-[(1-{6-[5-(1-methylcyclopropoxy)-1H-indazol-3-yl]pyrimidin-4-yl}piperidin-4-yl)methyl]piperazin-1-yl}methyl)piperidin-1-yl]-1H-1,3-benzodiazol-1-yl}piperidine-2,6-dione], for which the Dmax by setting is: under setting [1], 62%; under setting [2], 62%. Further, the DC50 runs as follows: under setting [3], 1.6 nM; under setting [4], 1.6 nM.
